From ChEMBL document CHEMBL6120963, “Discovery of Novel PROTAC SIRT6 Degraders with Potent Efficacy against Hepatocellular Carcinoma” (J Med Chem, 2024)
Active and inactive are the calls of the source. The rule behind the calls is not given here.

Tests used:
[1] = tested on: SK-HEP1; experiment: Effect of CSTB mRNA expression in human SK-HEP1 cells at 2.5 uM incubated for 36 hrs by RNA sequencing analysis; assay type: functional, cell-based
[2] = tested on: SK-HEP1; experiment: Induction of DNA damage in human SK-HEP1 cells xenografted in BALB/c nude mouse assessed as increase in gamma-H2AX level at 10 mg/kg treated for 28 to 30 days under irradiation (3 Gy); assay type: functional, organism-based; details: time 28-30 day
[3] = tested on: SK-HEP1; experiment: Downregulation of CCPG1 expression in human SK-HEP1 cells at 2.5 uM incubated for 36 hrs; assay type: functional, cell-based
[4] = molecular target: T1, Protein cereblon/NAD-dependent protein deacylase sirtuin-6 (Homo sapiens, UniProt Q8N6T7+Q96SW2); experiment: PROTAC activity at CRBN/SIRT6 in human Hep3B cells assessed as induction of SIRT6 degradation incubated for 24 hrs by Western blot analysis; assay type: cell-based
Target sequence in this assay (Q8N6T7 2-355 limits assumed): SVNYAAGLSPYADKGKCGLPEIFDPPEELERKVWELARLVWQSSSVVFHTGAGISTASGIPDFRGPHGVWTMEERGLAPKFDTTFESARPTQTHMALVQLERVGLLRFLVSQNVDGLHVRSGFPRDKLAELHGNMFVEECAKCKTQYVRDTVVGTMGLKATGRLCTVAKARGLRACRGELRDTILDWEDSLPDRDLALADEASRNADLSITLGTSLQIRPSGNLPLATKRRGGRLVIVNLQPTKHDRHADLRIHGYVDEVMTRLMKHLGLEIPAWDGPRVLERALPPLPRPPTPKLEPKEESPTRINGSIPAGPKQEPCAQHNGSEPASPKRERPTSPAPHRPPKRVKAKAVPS
Target sequence in this assay (Q96SW2 whole entry partner): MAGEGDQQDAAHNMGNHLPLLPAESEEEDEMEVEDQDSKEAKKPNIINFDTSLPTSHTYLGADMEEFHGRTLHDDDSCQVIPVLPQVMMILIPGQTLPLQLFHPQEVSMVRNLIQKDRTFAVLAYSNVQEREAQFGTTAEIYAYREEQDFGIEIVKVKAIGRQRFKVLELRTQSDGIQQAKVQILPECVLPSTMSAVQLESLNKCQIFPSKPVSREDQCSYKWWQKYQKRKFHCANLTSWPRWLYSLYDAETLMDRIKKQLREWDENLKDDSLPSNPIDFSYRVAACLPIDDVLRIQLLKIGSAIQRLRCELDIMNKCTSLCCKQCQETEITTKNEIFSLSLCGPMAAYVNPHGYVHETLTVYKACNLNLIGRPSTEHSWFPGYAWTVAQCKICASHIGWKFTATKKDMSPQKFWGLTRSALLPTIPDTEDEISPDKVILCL

[5] = molecular target: T1, Protein cereblon/NAD-dependent protein deacylase sirtuin-6; experiment: PROTAC activity at CRBN/SIRT6 in human Huh-7 cells assessed as hook effect at 5 uM incubated for 36 hrs by Western blot analysis; assay type: cell-based
Target sequence in this assay (Q8N6T7 2-355 limits assumed): as the sequence (Q8N6T7 2-355 limits assumed) above
Target sequence in this assay (Q96SW2 whole entry partner): as the sequence (Q96SW2 whole entry partner) above

[6] = tested on: SK-HEP1; experiment: Induction of DNA damage in human SK-HEP1 cells assessed as long tail moment incubated for 36 hrs followed by irradiation (10 Gy) for 6 hrs by comet assay; assay type: functional, cell-based
[7] = Toxicity in BALB/c nude mouse xenografted with human SK-HEP1 cells assessed as histopathological abnormalities in heart at 10 mg/kg treated for 28 to 30 days by H and E staining based analysis; assay type: organism-based; details: in vivo, time 28-30 day
[8] = tested on: SK-HEP1; experiment: Downregulation of CCPG1 expression in human SK-HEP1 cells at 2.5 uM incubated for 36 hrs in presence of MLN4924; assay type: functional, cell-based
[9] = molecular target: T1, Protein cereblon/NAD-dependent protein deacylase sirtuin-6; experiment: PROTAC activity at CRBN/SIRT6 in human SK-HEP1 cells assessed as induction of SIRT6 degradation at 2 uM incubated for 36 hrs by In-Cell ELISA relative to control; assay type: cell-based
Target sequence in this assay (Q8N6T7 2-355 limits assumed): as the sequence (Q8N6T7 2-355 limits assumed) above
Target sequence in this assay (Q96SW2 whole entry partner): as the sequence (Q96SW2 whole entry partner) above

[10] = Toxicity in BALB/c nude mouse xenografted with human SK-HEP1 cells assessed as pathological damage in heart at 10 mg/kg treated for 28 to 30 days under irradiation (3 Gy) by H and E staining based analysis; assay type: organism-based; details: in vivo, time 28-30 day
[11] = molecular target: T1, Protein cereblon/NAD-dependent protein deacylase sirtuin-6; experiment: PROTAC activity at CRBN/SIRT6 in human SK-HEP1 cells assessed as induction of SIRT6 degradation incubated for 36 hrs by Western blot analysis; assay type: cell-based
Target sequence in this assay (Q8N6T7 whole entry): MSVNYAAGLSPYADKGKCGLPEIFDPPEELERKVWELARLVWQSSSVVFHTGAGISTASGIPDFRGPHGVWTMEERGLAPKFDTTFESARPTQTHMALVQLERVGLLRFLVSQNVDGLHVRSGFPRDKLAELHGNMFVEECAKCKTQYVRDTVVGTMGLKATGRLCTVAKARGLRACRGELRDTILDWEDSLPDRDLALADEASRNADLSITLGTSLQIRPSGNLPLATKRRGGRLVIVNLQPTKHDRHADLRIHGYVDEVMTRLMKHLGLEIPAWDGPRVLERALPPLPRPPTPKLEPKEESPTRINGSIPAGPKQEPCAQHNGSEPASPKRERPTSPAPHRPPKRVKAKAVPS
Target sequence in this assay (Q96SW2 whole entry): as the sequence (Q96SW2 whole entry partner) above

[12] = tested on: SK-HEP1; experiment: Downregulation of NAIF1 expression in human SK-HEP1 cells at 2.5 uM incubated for 36 hrs in presence of MG132; assay type: functional, cell-based
[13] = tested on: SK-HEP1; experiment: Effect of SIRT6 mRNA expression in human SK-HEP1 cells at 2.5 uM incubated for 36 hrs by RT-qPCR analysis; assay type: functional, cell-based
[14] = Toxicity in BALB/c nude mouse xenografted with human SK-HEP1 cells assessed as pathological damage in liver at 10 mg/kg treated for 28 to 30 days under irradiation (3 Gy) by H and E staining based analysis; assay type: organism-based; details: in vivo, time 28-30 day
[15] = tested on: SK-HEP1; experiment: Induction of apoptosis in human SK-HEP1 cells at 2.5 uM incubated for 72 hrs in presence of sorafenib by Annexin V-FITC/PI staining based flow cytometry; assay type: functional, cell-based
[16] = molecular target: T1, Protein cereblon/NAD-dependent protein deacylase sirtuin-6; experiment: PROTAC activity at CRBN/SIRT6 in human SK-HEP1 cells assessed as induction of SIRT6 degradation at 2.5 uM incubated for 36 hrs by Western blot analysis; assay type: cell-based
Target sequence in this assay (Q8N6T7 2-355 limits assumed): as the sequence (Q8N6T7 2-355 limits assumed) above
Target sequence in this assay (Q96SW2 whole entry partner): as the sequence (Q96SW2 whole entry partner) above

[17] = molecular target: T1, Protein cereblon/NAD-dependent protein deacylase sirtuin-6; experiment: PROTAC activity at CRBN/SIRT6 in MLN4924-treated human SK-HEP1 cells assessed as induction of SIRT6 degradation at 2.5 uM treated for 36 hrs by Western blot analysis; assay type: cell-based
Target sequence in this assay (Q8N6T7 2-355 limits assumed): as the sequence (Q8N6T7 2-355 limits assumed) above
Target sequence in this assay (Q96SW2 whole entry partner): as the sequence (Q96SW2 whole entry partner) above

[18] = Toxicity in BALB/c nude mouse xenografted with human SK-HEP1 cells assessed as pathological damage in kidney at 10 mg/kg treated for 28 to 30 days by H and E staining based analysis; assay type: organism-based; details: in vivo, time 28-30 day
[19] = molecular target: T1, Protein cereblon/NAD-dependent protein deacylase sirtuin-6; experiment: PROTAC activity at CRBN/SIRT6 in human SK-HEP1 cells assessed as induction of SIRT6 degradation at 200 nM incubated for 36 hrs by In-Cell ELISA relative to control; assay type: cell-based
Target sequence in this assay (Q8N6T7 2-355 limits assumed): as the sequence (Q8N6T7 2-355 limits assumed) above
Target sequence in this assay (Q96SW2 whole entry partner): as the sequence (Q96SW2 whole entry partner) above

[20] = tested on: SK-HEP1; experiment: Antitumor activity against human SK-HEP1 cells xenografted in BALB/c nude mouse assessed as tumor growth suppression at 10 mg/kg treated for 28 to 30 days; assay type: functional, organism-based; details: time 28-30 day
[21] = tested on: SK-HEP1; experiment: Effect of genes related to cell apoptosis in human SK-HEP1 cells at 2.5 uM incubated for 36 hrs by GSEA analysis; assay type: functional, cell-based
[22] = tested on: SK-HEP1; experiment: Downregulation of FBXO44 expression in human SK-HEP1 cells at 2.5 uM incubated for 36 hrs; assay type: functional, cell-based
[23] = molecular target: T1, Protein cereblon/NAD-dependent protein deacylase sirtuin-6; experiment: PROTAC activity at CRBN/SIRT6 in human SK-HEP1 cells assessed as disruption of CHD4 recruitment to DSB sites at 2.5 uM incubated for 36 hrs followed by sorafenib treatment for 4 hrs by Western blot analysis; assay type: cell-based; details: time 40.0 hrs
[24] = tested on: SK-HEP1; experiment: Inhibition of cell proliferation of human SK-HEP1 cells xenografted in BALB/c nude mouse at 10 mg/kg treated for 28 to 30 days under irradiation (3 Gy); assay type: functional, organism-based; details: time 28-30 day
[25] = molecular target: T1, Protein cereblon/NAD-dependent protein deacylase sirtuin-6; experiment: PROTAC activity at CRBN/SIRT6 in human U2OS cells with DNA repair assessed as inhibition of CHD4 loading onto chromatin incubated for 36 hrs by FACS analysis; assay type: cell-based
[26] = tested on: SK-HEP1; experiment: Induction of apoptosis in human SK-HEP1 cells at 2.5 uM preincubated for 36 hrs followed by irradiation (3 Gy) by Annexin V-FITC/PI staining based flow cytometry; assay type: functional, cell-based
[27] = tested on: SK-HEP1; experiment: Downregulation of TEDC1 expression in human SK-HEP1 cells at 2.5 uM incubated for 36 hrs; assay type: functional, cell-based
[28] = molecular target: T1, Protein cereblon/NAD-dependent protein deacylase sirtuin-6; experiment: PROTAC activity at CRBN/SIRT6 in human SK-HEP1 cells assessed as increase in H3K9Ac level incubated for 36 hrs by Western blot analysis; assay type: cell-based; details: dose 0.002-1 µM
[29] = tested on: SK-HEP1; experiment: Effect of SAP18 mRNA expression in human SK-HEP1 cells at 2.5 uM incubated for 36 hrs by RNA sequencing analysis; assay type: functional, cell-based
[30] = tested on: SK-HEP1; experiment: Effect of FN1 mRNA expression in human SK-HEP1 cells at 2.5 uM incubated for 36 hrs by RNA sequencing analysis; assay type: functional, cell-based
[31] = tested on: SK-HEP1; experiment: Effect of H2BC21 mRNA expression in human SK-HEP1 cells at 2.5 uM incubated for 36 hrs by RNA sequencing analysis; assay type: functional, cell-based
[32] = tested on: SK-HEP1; experiment: Inhibition of colony formation in human SK-HEP1 cells at 5 uM incubated for 10 to 14 days with replacement of medium containing compounds on every 3 days combined with irradiation (3 Gy) by crystal violet staining based analysis; assay type: functional, cell-based; details: time 10-14 day
[33] = Toxicity in BALB/c nude mouse xenografted with human SK-HEP1 cells assessed as histopathological abnormalities in lungs at 10 mg/kg treated for 28 to 30 days under irradiation (3 Gy) by H and E staining based analysis; assay type: organism-based; details: in vivo, time 28-30 day
[34] = Toxicity in BALB/c nude mouse xenografted with human SK-HEP1 cells assessed as histopathological abnormalities in heart at 10 mg/kg treated for 28 to 30 days in presence of sorafenib by H and E staining based analysis; assay type: organism-based; details: in vivo, time 28-30 day
[35] = molecular target: T1, Protein cereblon/NAD-dependent protein deacylase sirtuin-6; experiment: PROTAC activity at CRBN/SIRT6 in human SK-HEP1 cells assessed as impairment in gamma-H2AX foci formation by immunofluorescence based analysis; assay type: cell-based

Activity [5]: Active
Activity [9]: 92.5%
DC50 [11]: 45.3 nM
Activity [16]: Active
Activity [17]: inactive
Activity [19]: 67.7%
Activity [23]: Active
Activity [28]: Dose-dependent-effect
Activity [35]: Active
SMILES: Nc1cc(N2CCN(CC3CCN(c4cc5c(cc4F)C(=O)N(C4CCC(=O)NC4=O)C5=O)CC3)CC2)ccc1[N+](=O)[O-] (stereo not given)
Activity [1]: Active
Activity [2]: Active
Activity [3]: Active
Activity [4]: Active; Reached A Plateau After 36 Hrs Of Treatment
Activity [6]: Active
Activity [7]: Non-toxic
Activity [8]: inactive
Activity [10]: Non-toxic
Activity [12]: inactive
Activity [13]: Active; Only Slight Downregulation Observed
Activity [14]: Non-toxic
Activity [15]: Active
Activity [18]: Non-toxic
Activity [20]: Active
Activity [21]: Active
Activity [22]: Active
inhibition [24]: Active
inhibition [25]: Active; Results In Decrease In Hr And Nhej Efficiencies
Activity [26]: Active; Significant Effect Was Observed Before Being Exposed To Ir
Activity [27]: Active
Activity [29]: Active
Activity [30]: Active
Activity [31]: Active
inhibition [32]: Not active; Exhibited Weaker Inhibition
Activity [33]: Non-toxic
Activity [34]: Non-toxic
